The numbers were not newly measured in US20160243040A1, “Pharmaceutical Composition with Antiinflammatory Agents and Production Process” (LABORATORIO RAAM DE SAHUAYO, S.A. DE C.V., priority 2013, published 2016), which cites them from elsewhere.

For series [1] the following is noted: relative potency, cortisol = 1.
For series [2] the following is noted: applies only to oral or intravenous use.
For series [3] the following is noted: relative potency, cortisol = 1. The source holds these as a separate data set.
The conditions of series [4]: class by biological half-life.

In the case of `C[C@]12CCC(=O)C=C1CC[C@@H]1[C@@H]2[C@@H](O)C[C@@]2(C)[C@H]1CC[C@]2(O)C(=O)CO` [Cortisol], the Anti-inflammatory potency in series [1] was 1. The Dose equivalents in series [2] is given as 20 mg. Further, the “Potency to retain Na+” value in series [3] is recorded as 1. Further, in series [4], the Duration of action entry is “B (B, short (Biological half-life of 8-12 h))”.

In the case of `C[C@H]1C[C@@H]2[C@H]([C@@H](O)C[C@@]3(C)[C@H]2CC[C@]3(O)C(=O)CO)[C@@]2(C)C=CC(=O)C=C12` [6α-methyl prednisolone], the Anti-inflammatory potency in series [1] is given as 5. Also, the Dose equivalents in series [2] was 4 mg. Further, in series [3], the “Potency to retain Na+” value was 0.5. Also, the Duration of action entry in series [4] is recorded as “I (I, intermediate (Biological half-life of 12-36 h))”.

In the case of `O=C(O)COC(=O)Cc1ccccc1Nc1c(Cl)cccc1Cl` [aceclofenac, Aceclofenac], under “mainly as aceclofenac glucuronide and diclofenac, and its hydroxy metabolites”, the “dose excreted in urine” value is “Approximately 70%”. Under “oral, presence of food”, the “tmax in presence of food” value was 3.5 h. Further, the tmax without food (oral, without food) was 2.0 h. Further, the elimination half-life (single dose of 100 mg) was 6.2 h.

For `C[C@]12CCC(=O)C=C1CC[C@@H]1[C@@H]2C(=O)C[C@@]2(C)[C@H]1CC[C@]2(O)C(=O)CO` [Cortisone], the Anti-inflammatory potency in series [1] is on record as 0.8. Moreover, the Dose equivalents in series [2] is listed as 25 mg. In addition, the “Potency to retain Na+” value in series [3] is 0.8. Also, the Duration of action entry in series [4] was “B (B, short (Biological half-life of 8-12 h))”.

As for `C[C@]12C=CC(=O)C=C1CC[C@H]1[C@@H]3C[C@@H](O)[C@](O)(C(=O)CO)[C@@]3(C)C[C@H](O)[C@@]12F` [Tiamcinolone], the Anti-inflammatory potency in series [1] is recorded as 5. Besides, the Dose equivalents in series [2] was 4 mg. The “Potency to retain Na+” value in series [3] is listed as 0. In addition, in series [4], the Duration of action entry is listed as “I (I, intermediate (Biological half-life of 12-36 h))”.

In the case of `C[C@@H]1C[C@H]2[C@@H]3CCC4=CC(=O)C=C[C@]4(C)[C@@]3(F)[C@@H](O)C[C@]2(C)[C@@]1(O)C(=O)CO` [Dexamethasone], the Duration of action result in series [4] was “P (P, prolonged (Biological half-life of 36 to 72 h))”.

As for `C[C@]12C=CC(=O)C=C1CC[C@@H]1[C@@H]2[C@@H](O)C[C@@]2(C)[C@H]1CC[C@]2(O)C(=O)CO` [Prednisolone], the Anti-inflammatory potency in series [1] was 4. The Dose equivalents in series [2] is on record as 5 mg. The “Potency to retain Na+” value in series [3] was 0.8. Further, the Duration of action entry in series [4] is on record as “I (I, intermediate (Biological half-life of 12-36 h))”.

For the compound `C[C@]12CCC(=O)C=C1CC[C@H]1[C@@H]3CC[C@](O)(C(=O)CO)[C@@]3(C)C[C@H](O)[C@@]12F` [Fludrocortisone], the Duration of action result in series [4] was “I (I, intermediate (Biological half-life of 12-36 h))”.

With `C[C@H]1C[C@H]2[C@@H]3CCC4=CC(=O)C=C[C@]4(C)[C@@]3(F)[C@@H](O)C[C@]2(C)[C@@]1(O)C(=O)CO` [Betamethasone], the Duration of action entry in series [4] is reported as “P (P, prolonged (Biological half-life of 36 to 72 h))”.
